Where two headings read alike, the source gives them in different places.
Legend:
[1] = Pharmacokinetic behavior in mice (plasma concentration by LC-MS/MS); type: in vivo; details: male ICR mice
Experimental: (§1) Three healthy ICR mice (SPF grade, from Beijing Vital River Laboratory Animal Technology Co., Ltd.), male, weighing 18-25 g, were intravenously injected with a compound (1 mg/kg) at a volume of 5 mL/kg. The compound was prepared using 5% DMSO+10% Solutol+85% Saline (w/v), and the animals were not fasted before the experiment.
as §1, with “were intragastrically administered” for “were intravenously injected with”, “compound (5” for “compound (1”, “of 10” for “of 5”
Blood samples (about 0.05 mL each) were collected from the cheeks at 5 min, 15 min, 30 min, 1 h, 2 h, 4 h, 6 h, 8 h, and 24 h after intravenous administration, and at 5 min, 15 min, 30 min, 1 h, 2 h, 4 h, 6 h, 8 h, and 24 h after intragastrical administration, and anticoagulated with heparin sodium. Following collection, the blood samples were placed on ice and the plasma was centrifuged within 1 h (centrifugation conditions: 6,000 g, 3 min, 2 °C to 8°C). The concentration of the compounds in the plasma was determined by liquid chromatography tandem mass spectrometry. The plasma samples were stored in a -80°C freezer before analysis. With plasma concentration data at different time points, pharmacokinetic parameters were calculated by Phoenix WinNonlin8.2.0, and the results are shown in Table 4: Table 4

[2] = molecular target: T1, IRAK4-HiBiT fusion protein (Homo sapiens, UniProt Q9NWZ3); experiment: Detection of HiBiT-IRAK4 proteolysis levels in K562 IRAK4-HiBiT cells (Nano-Glo HiBiT Lytic assay); type: cell-based
T1 construct: K562 from ATCC
T1 sequence (Q9NWZ3 1-460): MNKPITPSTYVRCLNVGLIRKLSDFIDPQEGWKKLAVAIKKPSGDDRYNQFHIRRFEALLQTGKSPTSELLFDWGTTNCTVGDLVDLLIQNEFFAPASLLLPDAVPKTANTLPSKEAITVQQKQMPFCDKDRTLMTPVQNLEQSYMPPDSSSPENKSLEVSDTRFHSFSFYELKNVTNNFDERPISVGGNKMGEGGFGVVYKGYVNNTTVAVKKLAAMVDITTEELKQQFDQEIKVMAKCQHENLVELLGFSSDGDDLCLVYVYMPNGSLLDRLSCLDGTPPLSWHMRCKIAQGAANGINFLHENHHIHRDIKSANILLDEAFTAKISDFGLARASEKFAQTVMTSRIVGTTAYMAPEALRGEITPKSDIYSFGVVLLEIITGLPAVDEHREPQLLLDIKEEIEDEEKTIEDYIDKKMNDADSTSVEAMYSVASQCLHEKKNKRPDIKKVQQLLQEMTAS
Experimental: Test Example 1 Detection of HiBiT-IRAK4 proteolysis levels in K562 IRAK4-HiBiT cells co-incubated with compounds of the present application • Reagents, devices, and consumables in experiments: • Nano-Glo Lytic Detection Assay, purchased from Promega; • EnVision, purchased from PerkinElmer; • Name of cell line: K562 IRAK4-HiBiT stable transformation cell strain (capable of stably expressing IRAK4-HiBiT fusion protein), constructed by Shanghai Bioduro Biologics Co., Ltd., where a K562 cell strain was purchased from ATCC. The culture medium is IMDM+10% FBS+1% P/S (volume percentage, where FBS is fetal bovine serum and P/S is Penicillin-Streptomycin, a 1:1 mixture of penicillin and streptomycin antibiotic solution (10,000 units/mL)).
Cell culture: K562 IRAK4-HiBiT cells were incubated at 37°C, and passaged every 2-3 d, with a seeding density of 200,000 cells/mL.
IRAK4-HiBiT proteolysis experiment: • Step 1: Cell seeding and treatment of compound • 1. A 10 mM compound mother liquor was prepared using DMSO, and a compound solution with a working concentration of 1,000 times (the highest working concentration is 10 µM, diluted 3.162 times, with a total of 10 concentration gradients) was prepared using Bravo automatic liquid processing platform. • 2. 40 nL of a compound working solution was transferred to a 384 well plate, and an equal volume of DMSO was added to positive control wells. • 3. 20 µL of a culture solution was added per well and shaken for 10 min. • 4.20 µL of a K562 IRAK4-HiBiT cell suspension was added per well (6,000 cells/well), and an equal volume of culture medium was added to negative control wells. • 5. The well plate was rotated at 1,000 rpm for 1 min. • 6. The cells were incubated in a 5% CO2 incubator at 37°C for 2 h or 6 h. • Step 2: HiBiT Lytic experiment • 1. The well plate was placed at room temperature to equilibrate for 30 min. • 2. 20 µL of Nano-Glo HiBiT Lytic reagent (trade name: Nano-Glo® HiBiT Lytic Detection Reagent) and the well plate was kept in the dark. • 3. The well plate was placed on an orbital shaker at 300 rpm for 5 min. • 4. The cells were incubated at room temperature for 10 min. • 5. The luminous value was read by Envision. • 6. Data was calculated and processed. Degradation degree%=(negative control - experimental well)/(negative control - positive control) * 100%. Using XL-fit software, a degradation curve was obtained by fitting using a 4 Parameter Logistic Model, and the values of Relative DC50 (nM) and Absolute DC50 (nM) were obtained.

[3] = system: LPS induced IL-6 release in human PBMC cells; experiment: Inhibition of LPS induced IL-6 release in human PBMC cells (IL-6 HTRF assay); type: cell-based; details: 2 h compound pre-incubation, LPS 5 ng/mL for 4 h, IL-6 in supernatant
Experimental: I. Recovery and seeding of PBMC, and treatment of compounds (human PBMC cells were purchased from Oricell, item number: Fpb003F)
• 1. Preparation of compounds Sample dilutions of a series of concentrations were obtained by dilution in DMSO using Bravo, and then 80 nL was transferred into a cell plate using ECHO. The final concentration of DMSO in the cell culture medium is 0.1%. • 2. Frozen cells were quickly thawed in a 37°C water bath and stirred continuously. • 3. 25 mL of fresh preheated culture medium was added into a 50 mL centrifuge tube, and then the cells were added dropwise. Then the cells were centrifuged at 2,000 rpm for 10 min. • 4. […] The total number of cells required was calculated based on cell concentration to perform the assay. 7×10e4 cells were added per well (70 µL). • 6. The cell plate was placed and incubated in a 5% CO2 incubator at 37°C for 2 h.
• 1. LPS: A stock solution (1 mg/mL) was diluted in dH2O, aliquoted, and stored at -80°C. • 2. 8-fold LPS was added per well (10 µl/well) (with a final concentration of 5 ng/mL). The cells were incubated in a 5% CO2 incubator at 37°C for 4 h. • 3. 70 µl of supernatant was collected per well using Bravo, and then IL-6 HTRF assay was performed. The supernatant may be stored at -80°C.
1. Preparation of standards and sample dilutions. 2. 16 µL of each sample was taken using Bravo and added to wells. Then 16 µL of each standard was taken and added to corresponding wells. 3.4 µL of a premixed IL6 antibody working solution was added to each of all wells. 4. The cell plate was sealed and incubated at room temperature for 2 h. 5.

[4] = Intragastric administration (5 mg/kg), 5 mg/kg
[5] = Intravenous injection (1 mg/kg), 1 mg/kg
[6] = 6 h incubation, read-out: Absolute DC50
[7] = 6 h incubation, read-out: Relative DC50
[8] = 2 h incubation, read-out: Absolute DC50
[9] = 2 h incubation, read-out: Relative DC50

Structure (SMILES)	Dmax ([2]; 6 h incubation) [%]	DC50 [2, 6] [nM]	DC50 [2, 7] [nM]	other results
CC(C)(O)c1cc2nn([C@H]3CC[C@H](CCN4CCN5c6ccc(C7(C)CCC(=O)NC7=O)cc6OC[C@H]5C4)CC3)cc2cc1NC(=O)c1cccc(C(F)(F)F)n1 (single isomer, unassigned) [Compound 120-b-1]				AUClast [1, 4]: 16903 ng·h/mL; Cmax [1, 4]: 1457 ng/mL; F% [1, 4]: 44.5%; T1/2 [1, 4]: 5.32 h; AUClast [1, 5]: 7249 ng·h/mL; CL [1, 5]: 2.10 mL/min/kg; Cmax [1, 5]: 888 ng/mL; Vss [1, 5]: 1.19 L/kg
CC(C)(O)c1cc2nn([C@H]3CC[C@H](CCN4CCN5c6ncc(C7CCC(=O)NC7=O)cc6OCC5C4)CC3)cc2cc1NC(=O)c1cccc(C(F)(F)F)n1 (stereo partly shown) [Compound 2]	96	6.32	5.43	
CC(C)(O)c1cc2nn([C@H]3CC[C@H](CCN4CCC5(CC4)OCc4cc(C6CCC(=O)NC6=O)ccc45)CC3)cc2cc1NC(=O)c1cccc(C(F)(F)F)n1 (stereo partly shown) [Compound 47]	93	0.65	0.54	IC50 [3]: 0.52 nM
CC(C)Oc1cc2nc([C@H]3CC[C@H](CCN4CCC5(CC4)OCc4cc(C6CCC(=O)NC6=O)ccc45)CC3)cn2cc1C(=O)Nc1cnn2cccnc12 (stereo partly shown) [Compound 94]	97	3.82	3.97	IC50 [3]: 64.5 nM
COc1cc2nn([C@H]3CC[C@H](CCN4CCN5c6ccc(C7CCC(=O)NC7=O)cc6OCC5C4)CC3)cc2cc1C(=O)Nc1cccc(C(F)(F)F)n1 (stereo partly shown) [Compound 95]	97	3.87	4.83	
COc1cc2nn(C3CCN(CCN4CCC5(CC4)OCc4cc(C6CCC(=O)NC6=O)ccc45)CC3)cc2cc1NC(=O)c1cccc(C(F)(F)F)n1 (stereo not shown) [Compound 97]	93	1.64	1.6	
COc1cc2nn(C3CCN(CCN4CCN5c6ccc(C7CCC(=O)NC7=O)cc6OCC5C4)CC3)cc2cc1NC(=O)c1cccc(C(F)(F)F)n1 (stereo not shown) [Compound 98]	89	< 1	0.2	
CC(C)(O)c1cc2nn(C3CCN(CCN4CCN5c6ccc(C7CCC(=O)NC7=O)cc6OCC5C4)CC3)cc2cc1NC(=O)c1cccc(C(F)(F)F)n1 (stereo not shown) [Compound 99]				Dmax ([2]; 2 h incubation): 66%; DC50 [2, 8]: 40.3 nM; DC50 [2, 9]: 13.5 nM
[2H]C1(c2ccc3c(c2)OCC2CN(CCC4CCC(n5cc6cc(NC(=O)c7cccc(C(F)(F)F)n7)c(C(C)(C)O)cc6n5)CC4)CCN32)CCC(=O)NC1=O (stereo not shown) [Compound 101]				Dmax ([2]; 2 h incubation): 87%; DC50 [2, 8]: 7.2 nM; DC50 [2, 9]: 4.28 nM
CC(C)(O)c1cc2nn([C@H]3CC[C@H](CN4CCC5(CC4)OCc4cc(C6CCC(=O)NC6=O)ccc45)CC3)cc2cc1NC(=O)c1cccc(C(F)(F)F)n1 (stereo partly shown) [Compound 114]	85	4.85	3.99	
CC(C)(O)c1cc2nn([C@H]3CC[C@H](CCN4CC5(CCN6c7ccc(C8CCC(=O)NC8=O)cc7NC6C5)C4)CC3)cc2cc1NC(=O)c1cccc(C(F)(F)F)n1 (stereo partly shown) [Compound 115]	77	146	81.4	
CC(C)(O)c1cc2nn([C@H]3CC[C@H](CCN4CCN5c6ncc(N7CCC(=O)NC7=O)cc6OCC5C4)CC3)cc2cc1NC(=O)c1cccc(C(F)(F)F)n1 (stereo partly shown) [Compound 116]	83	8.37	4.48	
CC(C)(O)c1cc2nn([C@H]3CC[C@H](CCN4CCN5c6ccc(N7CCC(=O)NC7=O)cc6OCC5C4)CC3)cc2cc1NC(=O)c1cccc(C(F)(F)F)n1 (stereo partly shown) [Compound 117]	89	11.7	10.3	
CC(C)(O)c1cc2nn([C@H]3CC[C@H](CCN4CCN5c6ccc(N7CCC(=O)NC7=O)cc6CCC5C4)CC3)cc2cc1NC(=O)c1cccc(C(F)(F)F)n1 (stereo partly shown) [Compound 118]				Dmax ([2]; 2 h incubation): 61%; DC50 [2, 8]: 4.62 nM; DC50 [2, 9]: 0.96 nM
CC(C)(O)c1cc2nn([C@H]3CC[C@H](CCN4CCN5c6ccc(C7CCC(=O)NC7=O)cc6CCC5C4)CC3)cc2cc1NC(=O)c1cccc(C(F)(F)F)n1 (stereo partly shown) [Compound 119]				Dmax ([2]; 2 h incubation): 93%; DC50 [2, 8]: 1.11 nM; DC50 [2, 9]: 1.02 nM
CC(C)(O)c1cc2nn([C@H]3CC[C@H](CCN4CCN5c6ccc(C7(C)CCC(=O)NC7=O)cc6OCC5C4)CC3)cc2cc1NC(=O)c1cccc(C(F)(F)F)n1 (stereo partly shown) [Compound 120]				Dmax ([2]; 2 h incubation): 90%; DC50 [2, 8]: 39 nM; DC50 [2, 9]: 27.8 nM
CC(C)(O)c1cc2nn([C@H]3CC[C@H](CCN4CCN5c6ccc(C7(C)CCC(=O)NC7=O)cc6OCC5C4)CC3)cc2cc1NC(=O)c1ccc2cc(C#N)cnn12 (stereo partly shown) [Compound 126]	97	10.8	12.3	
CC(C)(O)c1cc2nn([C@H]3CC[C@H](CCN4CCN5c6ccc(C7CCC(=O)NC7=O)cc6OCC5C4)CC3)cc2cc1NC(=O)c1ccc2cc(C#N)cnn12 (stereo partly shown) [Compound 129]	97	4.41	4.32	
CC(C)(O)c1cc2nn([C@H]3CC[C@H](CCN4CCN5c6ccc(C7CCC(=O)NC7=O)cc6OCCC5C4)CC3)cc2cc1NC(=O)c1cccc(C(F)(F)F)n1 (stereo partly shown) [Compound 130]	97	8.13	8.51	

From patent EP4696691A1, “TRICYCLIC COMPOUND, AND PREPARATION METHOD THEREFOR AND USE THEREOF” (Shanghai Huilun Pharmaceutical Co., Ltd., priority 2023, dated 2024)
